Laboratory results from patent US7015022B2, “Mammalian catalase-dependent oxidation processes and methods for stimulating oxidative activities” (University of Medicine & Dentistry of New Jersey, priority 2002, dated 2006).
Entries after “also recorded” stand apart in the source; their conditions may differ.

How the values were obtained:
mammalian catalase [1] = target: T1, mammalian catalase (Bos taurus, UniProt P00432); assay: Competition with AMPLEX-RED: inhibition of the AMPLEX-RED catalase oxidase reaction; assay type: biochemical, bovine; settings: for inhibition of the AMPLEX-RED catalase oxidase activity: catalase 1 mg/ml in reaction buffer, no concentration given; for kind of inhibition of the AMPLEX-RED oxidase reaction (kinetic analysis): competitive or noncompetitive; for inhibition of the oxidation of AMPLEX-RED to resorufin by catalase: concentrations ranging from 0.005 mM to 0.1 mm or greater; for Ki: calculated from kinetic analysis, catalase 1 mg/ml, read-out: Ki for inhibition of the AMPLEX-RED catalase oxidation reaction
T1 construct: purified catalases obtained from a variety of sources including enzyme from mouse and bovine liver; purchased Sigma Chemical Co., St. Louis, Mo; host or cells: liver tissue (mouse and bovine named)
T1 sequence (P00432 2-527 limits assumed): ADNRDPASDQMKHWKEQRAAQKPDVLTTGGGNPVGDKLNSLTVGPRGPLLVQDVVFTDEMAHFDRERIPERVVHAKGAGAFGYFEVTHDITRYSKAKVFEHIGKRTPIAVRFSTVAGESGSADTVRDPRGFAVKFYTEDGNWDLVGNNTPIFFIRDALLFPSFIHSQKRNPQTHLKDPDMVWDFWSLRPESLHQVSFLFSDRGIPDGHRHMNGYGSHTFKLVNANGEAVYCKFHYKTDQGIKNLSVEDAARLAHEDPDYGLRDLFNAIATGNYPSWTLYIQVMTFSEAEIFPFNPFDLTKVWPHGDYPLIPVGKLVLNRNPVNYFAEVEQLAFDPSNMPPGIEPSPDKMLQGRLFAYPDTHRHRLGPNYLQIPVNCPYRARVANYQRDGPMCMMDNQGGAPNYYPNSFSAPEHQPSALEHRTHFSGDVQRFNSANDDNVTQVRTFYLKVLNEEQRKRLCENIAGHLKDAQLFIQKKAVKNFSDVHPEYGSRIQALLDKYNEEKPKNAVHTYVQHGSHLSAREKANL
Protocol: Catalases were purchased from Sigma Chemical Co., St. Louis, Mo. Reactions were carried out in buffer consisting of 50 mM phosphate buffer, pH 7.4 and 1.0 mg/ml of the catalase at room temperature (22° C.) in a reaction volume of 0.1 ml. […] Standard reaction mixtures contain 20 nmoles of the substrate. Detection of the fluorescent product resorufin was measured using an HTS 7000 Plus Bio Assay Reader (Perkin Elmer, Beaconsfield, Buckinghamsire, UK) using a 540 nm excitation filter and a 595 nm emission filter.

mammalian catalase [2] = target: T1, mammalian catalase; assay: Oxidation of substrates by catalase oxidase activity (absorbance or fluorescence); assay type: biochemical, bovine; settings: in the absence of hydrogen peroxide
Protocol: The oxidation of multiple substrates depicted in Table 1 with time was measured using an HTS 7000 Plus Bio Assay Reader using standard catalase reaction mixes (0.5 mg/ml catalase in 50 mM phosphate buffer, pH 7.4). Pyrogallol oxidation (1 mM) was measured by the increase in absorbance at 430 nm. Oxidation of ABTS (1 mM) was measured as the […] in absorbance at 430 nm. Oxidation of catechol (1 mM) was measured as the increase in absorbance at 420 nm. Oxidation of DCFH (5 μM) by catalase was measured as the increase in fluorescence over time with a 485 nm excitation filter and a 520 nm emission filter.

catalase = target: T2, catalase (Bos taurus, UniProt P00432); assay: Accelerating catalase oxidation of DCFH-DA with UV light; assay type: biochemical; settings: DCFH-DA 5 μM, catalase 1 mg/ml
T2 sequence (P00432 2-527 limits assumed): T1 sequence (P00432 2-527 limits assumed)
Protocol: The present invention also relates to methods for accelerating the oxidation of substrates by catalase by exposure to ultraviolet light. For purposes of the present invention, by “accelerate” or “accelerating” it is meant that the rate at which catalase oxidizes a substrate is increased when exposed to ultraviolet light as compared the rate of oxidation of the substrate by catalase in the absence of ultraviolet light. In this method, a substrate is added to mammalian catalase and the mixture is then treated with low doses of ultraviolet light to accelerate oxidation of the substrate. In a preferred embodiment of this method, the low dose of ultraviolet radiation ranges between 2.5 and 25 mJ/cm^2 at a wavelength of UVB light that is between 290 and 320 nm. […] For example, the substrate DCFH-DA was added to a reaction mixture containing catalase in sodium phosphate buffer. The samples were then exposed to increasing doses of ultraviolet light (UVB, 290–320 nm).
Samples were then exposed to increasing doses of ultraviolet light (UVB, 290–320 nm) emitted from a bank of two FS20 UVB light bulbs (Sylvania).

Row | Compound | kind of inhibition of the AMPLEX-RED oxidase reaction (kinetic analysis) (mammalian catalase [1]) | inhibition of the oxidation of AMPLEX-RED to resorufin by catalase (mammalian catalase [1]) | also measured
1 | Nc1ccc(-c2ccc(N)c(N)c2)cc1N [DAB, 3,3′-diaminobenzidine] | competitive inhibitors | inhibition | inhibition of the AMPLEX-RED catalase oxidase activity (mammalian catalase [1]): inhibitors
2 | Nc1nc[nH]n1 [3-amino-1,2,4-triazole] |  |  | inhibition of the AMPLEX-RED catalase oxidase activity (mammalian catalase [1]): inhibits
3 | O=C(OC1Cc2c(O)cc(O)cc2OC1c1cc(O)c(O)c(O)c1)c1cc(O)c(O)c(O)c1 (single isomer, unassigned; (-)) [EGCG, (−)-epigallocatechin-3-gallate] |  |  | substrate for the catalase oxidase reaction (mammalian catalase [2]): substrate
4 | COc1cc(-c2ccc(N)c(OC)c2)ccc1N [DMB, 3,3′-dimethoxybenzidine] | competitive inhibitors | inhibition | 
5 | CCn1/c(=N\N=c2\sc3cc(S(=O)(=O)O)ccc3n2CC)sc2cc(S(=O)(=O)O)ccc21.N.N [ABTS, 2,2′-azino-bis[3-ethylbenzthiazoline-6-sulfonic acid]] | competitive inhibitors | inhibition | 
6 | 5-amino-2,3-dihydro-1,4-phthalazine-dione (luminol) | competitive inhibitor |  | 
7 | Cc1c(N(C)C)c(=O)n(-c2ccccc2)n1C [4-dimethylaminoantipyrine] | non-competitive inhibitors | inhibition | kind of inhibition of the AMPLEX-RED oxidase reaction (kinetic analysis) (mammalian catalase [1]; listed as aminopyrene): noncompetitive inhibitor

More lines, main results first:

Row | kind of inhibition of the AMPLEX-RED oxidase reaction (kinetic analysis) (mammalian catalase [1]) | inhibition of the oxidation of AMPLEX-RED to resorufin by catalase (mammalian catalase [1]) | Compound | also measured
8 | competitive inhibitors | inhibition | Oc1ccccc1O [DHB, 1,2-dihydroxybenzene(catechol)] | 
9 | competitive inhibitors | inhibition | CC(=O)Oc1cc2c(cc1Cl)C(c1ccccc1C(=O)O)c1cc(Cl)c(OC(C)=O)cc1O2 [DCFH-DA, 2′,7′-dichlorodihydrofluoresceindiacetate] | Ki (mammalian catalase [1]): 31.6 µM; oxidation of DCFH-DA by catalase (increase in fluorescence) (catalase; absence of UVB light): Oxidation of DCFH-DA is observed; also recorded: Relatively low levels of oxidation; oxidation of DCFH-DA by catalase (increase in fluorescence) (catalase; with UVB light 290–320 nm, increasing doses): marked enhancement
10 | competitive inhibitors | inhibition | Oc1cccc(O)c1O [pyrogallol, 1,2,3-trihydroxybenzene(pyrogallol)] | Ki (mammalian catalase [1]): 1680 µM
11 | competitive inhibitors | inhibition | COc1cc(/C=C/C(=O)O)ccc1O [HMCA, 4-hydroxy-3-methoxycinnamicacid (ferulic acid)] | substrate for the catalase oxidase reaction (mammalian catalase [2]): substrate
